# From patent US6660774B2, “Use of (+)-tramadol, O-demethyltramadol or (+)-O-demethyl-tramadol, O-desmethyl-N-mono-desmethyl-tramadol or (+)- O-desmethyl-N-mono-desmethyltramadol” (Gruenethal GmbH, priority 1999, dated 2003)
# Tested on: virgin, female Sprague-Dawley rats (bladder function)
# Assay: Cystometric testing on conscious, virgin rats
# Assay type: in vivo, rat
# [1] = 1.0 mg/kg i.v., Diff.: change relative to the initial value
# [2] = 1.0 mg/kg i.v., h: after administration, at maximum action
# [3] = 1.0 mg/kg i.v., v: before administration (initial value)
# [4] = 5.0 mg/kg i.v., Diff.: change relative to the initial value
# [5] = 5.0 mg/kg i.v., h: after administration, at maximum action
# [6] = 5.0 mg/kg i.v., v: before administration (initial value)
# [7] = 10.0 mg/kg i.v., Diff.: change relative to the initial value
# [8] = 10.0 mg/kg i.v., h: after administration, at maximum action
# [9] = 10.0 mg/kg i.v., v: before administration (initial value)
# [10] = 10.0 μg/kg i.t., Diff.: change relative to the initial value
# [11] = 10.0 μg/kg i.t., h: after administration, at maximum action
# [12] = 10.0 μg/kg i.t., v: before administration (initial value)
compound,measurement,setting,value
"COc1cccc([C@@]2(O)CCCC[C@@H]2CN(C)C)c1 (racemic) [Tramadol, (1RS,2RS)-2-dimethylaminomethyl-1-(3-methoxyphenyl)cyclohexanol]",Basal pressure,[1],Diff.: +26%
same,Bladder capacity,[1],Diff.: −2%
same,Micturition pressure,[1],Diff.: −10%
same,Micturition volume,[1],Diff.: +27%
same,Residual volume,[1],Diff.: −89%
same,Threshold pressure,[1],Diff.: +50%
same,Basal pressure,[2],h: 11.34 ± 1.54 cm H2O
same,Bladder capacity,[2],h: 0.82 ± 0.09 ml
same,Micturition pressure,[2],h: 85 ± 6 cm H2O
same,Micturition volume,[2],h: 0.95 ± 0.08 ml
same,Residual volume,[2],h: 0.01 ± 0.005 ml
same,Threshold pressure,[2],h: 21.03 ± 3.10 cm H2O
same,Basal pressure,[3],v: 9.02 ± 1.12 cm H2O
same,Bladder capacity,[3],v: 0.84 ± 0.11 ml
same,Micturition pressure,[3],v: 94 ± 7 cm H2O
same,Micturition volume,[3],v: 0.75 ± 0.09 ml
same,Residual volume,[3],v: 0.09 ± 0.02 ml
same,Threshold pressure,[3],v: 14.0 ± 2.04 cm H2O
same,action on threshold pressure compared with 10 mg/kg of racemic tramadol,5 mg/kg,doubled
same,Basal pressure,[4],Diff.: +1%
same,Bladder capacity,[4],Diff.: +6%
same,Inter-contraction interval,[4],Diff.: −11%
same,Micturition pressure,[4],Diff.: −27%
same,Micturition volume,[4],Diff.: +42%
same,Residual volume,[4],Diff.: −73%
same,Threshold pressure,[4],Diff.: +37%
same,Basal pressure,[5],h: 9.30 ± 2.10 cm H2O
same,Bladder capacity,[5],h: 0.92 ± 0.08 ml
same,Micturition pressure,[5],h: 75 ± 10 cm H2O
same,Micturition volume,[5],h: 1.08 ± 0.09 ml
same,Residual volume,[5],h: 0.03 ± 0.01 ml
same,Threshold pressure,[5],h: 17.05 ± 2.33 cm H2O
same,Basal pressure,[6],v: 9.21 ± 1.35 cm H2O
same,Bladder capacity,[6],v: 0.87 ± 0.07 ml
same,Micturition pressure,[6],v: 103 ± 10 cm H2O
same,Micturition volume,[6],v: 0.76 ± 0.06 ml
same,Residual volume,[6],v: 0.11 ± 0.02 ml
same,Threshold pressure,[6],v: 12.45 ± 1.411 cm H2O
same,threshold pressure (in words),10 mg/kg i.v.,distinct rise
same,Basal pressure,[7],Diff.: +40%
same,Bladder capacity,[7],Diff.: −18%
same,Inter-contraction interval,[7],Diff.: −40%
same,Micturition pressure,[7],Diff.: −11%
same,Micturition volume,[7],Diff.: +33%
same,Residual volume,[7],Diff.: −50%
same,Threshold pressure,[7],Diff.: +70%
same,Basal pressure,[8],h: 14.31 ± 1.89 cm H2O
same,Bladder capacity,[8],h: 0.78 ± 0.08 ml
same,Micturition pressure,[8],h: 66 ± 5 cm H2O
same,Micturition volume,[8],h: 1.13 ± 0.08 ml
same,Residual volume,[8],h: 0.05 ± 0.005 ml
same,Threshold pressure,[8],h: 25.50 ± 2.40 cm H2O
same,Basal pressure,[9],v: 10.21 ± 1.03 cm H2O
same,Bladder capacity,[9],v: 0.95 ± 0.06 ml
same,Micturition pressure,[9],v: 74 ± 5 cm H2O
same,Micturition volume,[9],v: 0.85 ± 0.05 ml
same,Residual volume,[9],v: 0.10 ± 0.02 ml
same,Threshold pressure,[9],v: 15.01 ± 1.32 cm H2O
same,ICI (in words),most effective dose (10 mg/kg),distinct reduction
"CNCC1CCCCC1(O)c1cccc(O)c1 (single isomer, unassigned; (+)) [(+)-M5, (+)-O-desmethyl-N-mono-desmethyltramadol]",Basal pressure,[10],Diff.: −9%
same,Bladder capacity,[10],Diff.: +61%
same,Inter-contraction interval,[10],Diff.: +38%
same,Micturition pressure,[10],Diff.: −46%
same,Micturition volume,[10],Diff.: +36%
same,Residual volume,[10],Diff.: +162%
same,Threshold pressure,[10],Diff.: +46%
same,Basal pressure,[11],h: 4.25 ± 0.33 cm H2O
same,Bladder capacity,[11],h: 1.06 ± 0.06 ml
same,Inter-contraction interval,[11],h: 5.22 ± 0.27 min
same,Micturition pressure,[11],h: 43 ± 6 cm H2O
same,Micturition volume,[11],h: 0.72 ± 0.04 ml
same,Residual volume,[11],h: 0.34 ± 0.04 ml
same,Threshold pressure,[11],h: 10.25 ± 1.01 cm H2O
same,Basal pressure,[12],v: 4.68 ± 0.74 cm H2O
same,Bladder capacity,[12],v: 0.66 ± 0.05 ml
same,Inter-contraction interval,[12],v: 3.78 ± 0.35 min
same,Micturition pressure,[12],v: 80 ± 9 cm H2O
same,Micturition volume,[12],v: 0.53 ± 0.06 ml
same,Residual volume,[12],v: 0.13 ± 0.01 ml
same,Threshold pressure,[12],v: 7.0 ± 0.93 cm H2O
same,threshold pressure (in words),10 mg/kg i.v.,distinct rise
same,interval between micturition (in words),10.0 mg/kg i.v.,not shortened
same,Basal pressure,[7],Diff.: +4%
same,Bladder capacity,[7],Diff.: −18%
same,Inter-contraction interval,[7],Diff.: −12%
same,Micturition pressure,[7],Diff.: −23%
same,Micturition volume,[7],Diff.: +9%
same,Residual volume,[7],Diff.: −88%
same,Threshold pressure,[7],Diff.: +69%
same,Basal pressure,[8],h: 3.95 ± 0.35 cm H2O
same,Bladder capacity,[8],h: 0.72 ± 0.08 ml
same,Inter-contraction interval,[8],h: 4.30 ± 0.47 min
same,Micturition pressure,[8],h: 41 ± 3 cm H2O
same,Micturition volume,[8],h: 0.86 ± 0.10 ml
same,Residual volume,[8],h: 0.01 ± 0.002 ml
same,Threshold pressure,[8],h: 12.08 ± 1.47 cm H2O
same,Basal pressure,[9],v: 3.78 ± 0.26 cm H2O
same,Bladder capacity,[9],v: 0.88 ± 0.09 ml
same,Inter-contraction interval,[9],v: 4.92 ± 0.53 min
same,Micturition pressure,[9],v: 53 ± 4 cm H2O
same,Micturition volume,[9],v: 0.79 ± 0.09 ml
same,Residual volume,[9],v: 0.08 ± 0.01 ml
same,Threshold pressure,[9],v: 7.13 ± 0.47 cm H2O
same,bladder capacity (in words),intrathecally,distinct increases
same,interval between micturition (in words),intrathecally,distinct increases
same,threshold pressure (in words),intrathecally,increase
"COc1cccc(C2(O)CCCCC2CN(C)C)c1 (single isomer, unassigned; (-)) [(−)-Tramadol, (−)-tramadol, reference compound]",Basal pressure,[4],Diff.: +2%
same,Bladder capacity,[4],Diff.: −8%
same,Micturition pressure,[4],Diff.: −15%
same,Micturition volume,[4],Diff.: −6%
same,Residual volume,[4],Diff.: −17%
same,Threshold pressure,[4],Diff.: −3%
same,Basal pressure,[5],h: 4.20 ± 0.30 cm H2O
same,Bladder capacity,[5],h: 1.10 ± 0.09 ml
same,Micturition pressure,[5],h: 59 ± 3 cm H2O
same,Micturition volume,[5],h: 1.01 ± 0.09 ml
same,Residual volume,[5],h: 0.10 ± 0.02 ml
same,Threshold pressure,[5],h: 7.10 ± 0.44 cm H2O
same,Basal pressure,[6],v: 4.12 ± 0.40 cm H2O
same,Bladder capacity,[6],v: 1.19 ± 0.13 ml
same,Micturition pressure,[6],v: 69 ± 4 cm H2O
same,Micturition volume,[6],v: 1.07 ± 0.13 ml
same,Residual volume,[6],v: 0.12 ± 0.01 ml
same,Threshold pressure,[6],v: 7.32 ± 2.21 cm H2O
